Measured values published in patent US20090069430A1, “DIBENZENE DERIVATIVES AS CALCIUM CHANNEL BLOCKERS” (NEUROPHARMA, S.A., priority 2005, published 2009).

Test system: VDCC
Experiment: VDCC inhibition: calcium entry (Fluo-4 fluorescence) after depolarization with 60 mM KCl in SH-SY5Y neuroblastoma cells
Assay type: cell-based, human
Protocol: This assay is aimed to determine the VDCC blocker activity of compounds; it is performed using SH-SY5Y neuroblastoma cells. SH-SY5Y cells were plated at 5×10^4 cells per well into Black/Clear Bottom 96-well culture plate, 48 hours before treatment. Cells were loaded with Fluo-4, 5 μM and pluronic acid, 0.1%, for 30 min at 37° C., 5% CO2, following a incubation of 15 min at RT in Krebs-HEPES solution. Immediately cells are exposed to the samples for 10 min at different concentrations, depending on potency. After the treatment, calcium entry is measured as fluorescence in a Fluostar Optima plate reader (BMG) in response to depolarization with 60 mM KCl. The excitation wavelength was 485 nm, and that of emission 520 nm.

[1] = compound at 10^−5, 10 min exposure
[2] = compound at 10^−6, 10 min exposure
[3] = compound at 10^−7, 10 min exposure
[4] = compound at 10^−8, 10 min exposure

Row | SMILES | % of calcium entry inhibition [1] [%] | % of calcium entry inhibition [2] [%] | % of calcium entry inhibition [3] [%] | % of calcium entry inhibition [4] [%]
1 | COCOc1cc(OC)ccc1C(=O)NCCCCCNC(=O)c1ccc(OC)cc1OCOC [Compound 1] | 57.8 ± 16 |  |  | 
2 | COCOc1cc(OC)ccc1C(=O)NCCCOc1ccc(CCNC(=O)c2ccc(OC)cc2OCOC)cc1 [Compound 2] | 93.3 ± 5 | 34.2 ± 1.5 | 29.7 ± 14 | 31.2 ± 9
3 | COCOc1cc(OC)ccc1C(=O)NCCCOc1c(Br)cc(CCNC(=O)c2ccc(OC)cc2OCOC)cc1Br [Compound 4] |  |  | 6 ± 0 | 
4 | COc1cc(O)c(C(=O)NCCCCCNC(=O)c2cc(Br)c(OC)cc2O)cc1Br [Compound 5] |  | 0 |  | 
5 | COc1cc(O)c(C(=O)NCCCCCNC(=O)c2cc(Br)c(OC)c(Br)c2O)cc1Br [Compound 6] | 96.6 ± 4 | 48.7 ± 18 | 27.5 ± 5 | 11.8 ± 16
6 | COc1c(Br)cc(C(=O)NCCCCCNC(=O)c2cc(Br)c(OC)c(Br)c2O)c(O)c1Br [Compound 7] | 90.7 ± 3 | 3.1 ± 0 |  | 
7 | CCOC(=O)COc1cc(OC)ccc1C(=O)NCCCOc1ccc(CCNC(=O)c2ccc(OC)cc2OCC(=O)OCC)cc1 [Compound 8] | 57 ± 7 | 0 |  | 
8 | CCCOc1cc(OC)ccc1C(=O)NCCCOc1ccc(CCNC(=O)c2ccc(OC)cc2OCCC)cc1 [Compound 9] | 86 ± 0.5 | 61 ± 0 | 0 | 
9 | COCCOc1cc(OC)ccc1C(=O)NCCCOc1ccc(CCNC(=O)c2ccc(OC)cc2OCCOC)cc1 [Compound 10] | 79 ± 0.1 | 22 ± 19 | 0 | 
10 | COc1ccc(C(=O)NCCCOc2ccc(CCNC(=O)c3ccc(OC)cc3OCC(C)=O)cc2)c(OCC(C)=O)c1 [Compound 11] | 36 ± 3 | 0 |  | 
11 | COc1ccc(C(=O)NCCCCCNC(=O)c2ccc(OC)c(C)c2OC)c(OC)c1C [Compound 12] | 78 ± 2.5 | 0 |  | 
12 | COc1cc(OC)c(C(=O)NCCCCCNC(=O)c2ccc(OC)c(C)c2OC)cc1OC [Compound 13] | 27 ± 2 | 0 |  | 
13 | COc1ccc(C(=O)NCCCCCCNC(=O)c2ccc(OC)cc2OC)c(OC)c1 [Compound 14] | 38 ± 6 | 0 |  | 
14 | COc1ccc(C(=O)NCCCOc2ccc(CCNC(=O)c3ccc(OC)cc3OC)cc2)c(OC)c1 [Compound 15] | 91.5 ± 1.5 | 37 ± 5 | 0 | 
15 | COc1ccc(C(=O)NCCCOc2ccc(CCNC(=O)c3ccc(OC)cc3OCC(C)C)cc2)c(OCC(C)C)c1 [Compound 16] | 39 ± 4 | 0 |  | 
16 | COc1ccc(C(=O)NCCCOc2ccc(CCNC(=O)c3ccc(OC)cc3OCC=C(C)C)cc2)c(OCC=C(C)C)c1 [Compound 17] | 45 ± 12 | 39 ± 8 | 0 | 
17 | CCCCOc1cc(OC)ccc1C(=O)NCCCOc1ccc(CCNC(=O)c2ccc(OC)cc2OCCCC)cc1 [Compound 18] | 37 ± 2 | 0 |  | 
18 | CCC(C)Oc1cc(OC)ccc1C(=O)NCCCOc1ccc(CCNC(=O)c2ccc(OC)cc2OC(C)CC)cc1 (stereo not shown) [Compound 19] | 75 ± 12 | 69 ± 1 | 0 | 
19 | CCC(C)Oc1cc(OC)ccc1C(=O)NCCCCCCNC(=O)c1ccc(OC)cc1OC(C)CC (stereo not shown) [Compound 20] | 91 ± 3 | 59 ± 19 | 0 | 
20 | CCCCCOc1cc(OC)ccc1C(=O)NCCCCCCNC(=O)c1ccc(OC)cc1OCCCCC [Compound 21] | 27 ± 7 | 0 |  | 
21 | CCCCOc1cc(OC)ccc1C(=O)NCCCCCCNC(=O)c1ccc(OC)cc1OCCCC [Compound 22] | 24 ± 12 | 0 |  | 
